Reference: patent US9873693B2 (Sunesis Pharmaceuticals, Inc., priority 2006, dated 2018)
Where two headings read alike, the source gives them in different places.

Experiments:
[1] = target: phosphorylated PDK1 (Homo sapiens (Human), UniProt O15530); test: PDK1 kinase assay (coupled PDK1/AKT/FAM-crosstide, IMAP); type: biochemical; details: 0.5 nM phosphorylated PDK1, 24 μM ATP; read-out: Inhibition of phospo-PDK1 in vitro IC50
[2] = target: dephosphorylated PDK1 (Homo sapiens (Human), UniProt O15530); test: as above; type: biochemical; details: 25 nM un-phosphorylated PDK1, 24 μM ATP; read-out: Inhibition of dephospo-PDK1 in vitro IC50
Chain of dephosphorylated PDK1 (O15530 51-360): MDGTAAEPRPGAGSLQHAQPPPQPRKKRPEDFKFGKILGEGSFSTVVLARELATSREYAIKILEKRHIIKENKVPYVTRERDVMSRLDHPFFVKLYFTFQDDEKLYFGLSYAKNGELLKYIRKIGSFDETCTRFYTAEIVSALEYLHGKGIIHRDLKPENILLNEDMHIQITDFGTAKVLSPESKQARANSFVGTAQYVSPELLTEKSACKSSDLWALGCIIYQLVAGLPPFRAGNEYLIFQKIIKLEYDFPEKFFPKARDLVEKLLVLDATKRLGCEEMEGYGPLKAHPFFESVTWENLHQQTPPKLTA
Method in brief: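 Coupled cascade using 25 nM dephosphorylated PDK1 (aa 51–360, lambda-phosphatase treated, MS-verified), 30 nM unphosphorylated GST-AKT2 (aa 140–467)-PIFtide and 100 nM FAM-crosstide in Tris pH 7.2, 10 mM MgCl2, 1 mM DTT. ATP was 24 μM, with 30 min at 25 °C. Product was read by IMAP fluorescence polarization, and ΔmP against concentration was fitted with a 4-parameter model.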

[3] = test system: phospho-akt (Thr308); test: phospho-akt (Thr308) MSD ELISA in PC-3 cells; type: cell-based; details: Homo sapiens, PC-3 cells; for inhibition at 1 µM / inhibition at 10 µM: read-out: Percent Inhibition of phospho-Akt (308) By MSD ELISA; for EC50: PC-3, 2 h, 2 hours, no serum
Method in brief: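 PC-3 cells plated overnight in 10% FBS medium, then treated with three-fold serial compound dilutions in serum-free medium; DMSO-only wells as high control. Lysates captured on BSA-blocked MSD plates overnight at 4 degrees, detection antibody 1 hr RT, electrochemiluminescence read on MSD reader.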

[4] = test system: Phospho-T308 Akt; test: Phospho-T308 Akt detection using immunoblot (western blot) in PC-3 cells; type: cell-based; details: for Reduction of Cellular Levels of Akt p308 By Western: 2 hour incubation, concentration not given in Table 2; for inhibition at 5 µM: Homo sapiens, read-out: Percent Inhibition of phospho-Akt (308) By Western
Description: A Phospho-T308 Akt detection using immunoblot (western blot) analysis was performed as described below.
PC-3 prostate cells were plated in a 6 well plate in F12K media (Invitrogen, Carlsbad, Calif.) plus 10% FBS (Invitrogen) and placed in incubator overnight. The stock of compound A was a 50 mM solution in DMSO. 1000× dilutions of the compound were made in DMSO. The 1000× dilutions include, 35 mM, 25 mM, 15 mM, 10 mM, 7 mM, 5 mM, and 1 mM. 1 μl of the 1000× dilutions was added to 1 ml F12K media without serum for final concentrations of […]. 1 μl of DMSO was added to 1 ml media with no serum for a control. The 1 ml DMSO or compound plus media was then added to the cells. Following a 2 hour incubation at 37° C., cells were harvested and washed in PBS and subjected to centrifugation at 3,300 rpm for 5 minutes. Cells were lysed in 100 μl of Bio Rad Bioplex buffer containing protease inhibitors (BioRad, Hercules, Calif.) for 30 minutes on ice followed by centrifugation at 13,000 rpm for 5 minutes. The protein content of the supernatant was assayed using DC Protein Assay (BioRad). 25 μl of protein was added to 4× sample buffer (Invitrogen) and sample reducer (Invitrogen) and run on a 4-12% NuPage gel (Invitrogen). Proteins were then transferred to nitrocellulose (Invitrogen). The membrane was blocked in Tris-buffered saline (Sigma, St. Louis, Mo.) plus 0.1% Tween (Sigma) (T-TBS) plus 5% blotting grade milk (BioRad) for 60 minutes. Membranes were then incubated in T-TBS plus 5% BSA (Sigma) plus 1:1000 of anti-phospho akt (Thr 308) (Cell Signaling Technology, Beverly, Mass.) overnight at 4° C. Membranes were washed in T-TBS then incubated in 1:2000 of anti-rabbit-HRP (Cell Signaling) in TTBS plus 5% milk. Membranes were washed again and proteins were visualized with Super Signal West Pico (Pierce, Rockford, Ill.) and using Kodak BioMax MR film (Kodak, Rochester, N.Y.).
Phospho-akt 308 protein bands on the film were quantified using densitometry. An Alpha Imager (Alpha Innotech Corp, San Leandro, Calif.) using AlphaEase FC software version 4.1.0 (Alpha Innotech Corp.) was used to quantitate protein bands. Briefly, a rectangle of equal size was placed around each protein band as well as a background spot on the film. The densitometry values (IDV=Integrated Density Value) obtained for the background spot was then subtracted from the values obtained for the protein bands. These values were used to obtain an EC50 value using non-linear regression analysis in GraphPad Prism Version 4.00 (Graph Pad Prism, San Diego, Calif.). Percent decrease in expression of phosphoh-akt 308 were also measured specifically at 2 μM and 5 μM levels of inhibitor.

[5] = read-out: Inhibition of P308 Akt in cells using MSD EC50
[6] = read-out: Reduction of Cellular Levels of Akt p308 By MSD ELISA (EC50 μM)

Chain of phosphorylated PDK1 (O15530 51-360): as above

COC(=O)c1cc(-c2cccc(CNC(=O)c3cccn(Cc4ccc(F)c(F)c4)c3=O)c2)c[nH]1 [Cpd 230]
IC50 [1]: < 500 nM | IC50 [2]: < 500 nM | inhibition at 1 µM [3]: 25 to 75% | inhibition at 10 µM [3]: > 75% | Reduction of Cellular Levels of Akt p308 By Western [4]: b (inhibition of less 25%) | inhibition at 5 µM [4]: < 25%

O=C(C[C@@H](NC(=O)c1cccn(Cc2ccc(F)c(F)c2)c1=O)c1nnc(-c2c[nH]c3ncccc23)o1)NCCN1CCCC1 [Cpd 298]
IC50 [1]: < 500 nM | IC50 [2]: < 500 nM | inhibition at 1 µM [3]: < 25% | inhibition at 10 µM [3]: < 25% | Reduction of Cellular Levels of Akt p308 By Western [4]: b (inhibition of less 25%) | inhibition at 5 µM [4]: < 25%

CC(C)(C)OC(=O)NC[C@@H](NC(=O)c1cccn(Cc2ccc(F)c(F)c2)c1=O)c1nc(-c2c[nH]c3ncccc23)cs1 [Cpd 295]
IC50 [1]: < 500 nM | IC50 [2]: < 500 nM | EC50 [3, 5]: 1 to 5 µM | inhibition at 1 µM [3]: < 25% | inhibition at 10 µM [3]: > 75% | Reduction of Cellular Levels of Akt p308 By Western [4]: bb (inhibition of from 25% to 75%) | inhibition at 5 µM [4]: 25 to 75%

C=CCOC(=O)C[C@@H](NC(=O)c1cccn(Cc2ccc(F)c(F)c2)c1=O)c1ncc(-c2c[nH]c3ncccc23)o1 [Cpd 301]
IC50 [1]: < 500 nM | IC50 [2]: < 500 nM | EC50 [3, 5]: 1 to 5 µM | EC50 [3, 6]: 1 to 5 µM | inhibition at 1 µM [3]: 25 to 75% | inhibition at 10 µM [3]: 25 to 75% | Reduction of Cellular Levels of Akt p308 By Western [4]: bbb (inhibition of more than 75%) | inhibition at 5 µM [4]: > 75%

O=C(NCc1noc(-c2c[nH]c3ncccc23)n1)c1cc(Cl)cn(Cc2cccc(F)c2)c1=O [Cpd 310]
IC50 [1]: < 500 nM | IC50 [2]: < 500 nM | EC50 [3, 5]: 1 to 5 µM | inhibition at 1 µM [3]: 25 to 75% | inhibition at 10 µM [3]: 25 to 75% | Reduction of Cellular Levels of Akt p308 By Western [4]: bb (inhibition of from 25% to 75%) | inhibition at 5 µM [4]: 25 to 75%

C[C@@H](c1ccc(Cl)cc1)n1cccc(C(=O)NCc2noc(-c3c[nH]c4ncccc34)n2)c1=O [Cpd 300]
IC50 [1]: < 500 nM | IC50 [2]: < 500 nM | EC50 [3, 5]: 1 to 5 µM | inhibition at 1 µM [3]: 25 to 75% | inhibition at 10 µM [3]: > 75% | Reduction of Cellular Levels of Akt p308 By Western [4]: bbb (inhibition of more than 75%) | inhibition at 5 µM [4]: > 75%

O=C(NCc1noc(-c2c[nH]c3ncccc23)n1)c1cccn(Cc2cccc(Cl)c2)c1=O [Cpd 294]
IC50 [1]: < 500 nM | IC50 [2]: < 500 nM | Reduction of Cellular Levels of Akt p308 By Western [4]: bb (inhibition of from 25% to 75%) | inhibition at 5 µM [4]: 25 to 75%

NC[C@@H](NC(=O)c1cccn(Cc2ccc(F)c(F)c2)c1=O)c1nnc(-c2c[nH]c3ncccc23)o1 [Cpd 283]
IC50 [1]: < 500 nM | IC50 [2]: < 500 nM | EC50 [3, 5]: 1 to 5 µM | EC50 [3, 6]: 1 to 5 µM | Reduction of Cellular Levels of Akt p308 By Western [4]: bb (inhibition of from 25% to 75%) | inhibition at 5 µM [4]: 25 to 75%

O=C(O)CC[C@@H](NC(=O)c1cccn(Cc2ccc(F)c(F)c2)c1=O)c1nc(-c2c[nH]c3ncccc23)co1 [Cpd 307]
IC50 [1]: < 500 nM | IC50 [2]: < 500 nM | inhibition at 1 µM [3]: < 25% | inhibition at 10 µM [3]: < 25% | Reduction of Cellular Levels of Akt p308 By Western [4]: b (inhibition of less 25%) | inhibition at 5 µM [4]: < 25%

COC(=O)[C@@H](COc1ccc2[nH]c(=O)[nH]c2c1)NC(=O)c1cccn(Cc2ccc(F)c(F)c2)c1=O [Cpd 293]
IC50 [1]: < 500 nM | IC50 [2]: < 500 nM | inhibition at 1 µM [3]: 25 to 75% | inhibition at 10 µM [3]: > 75% | Reduction of Cellular Levels of Akt p308 By Western [4]: bb (inhibition of from 25% to 75%) | inhibition at 5 µM [4]: 25 to 75%

CC(C)(C)OC(=O)C[C@@H](NC(=O)c1cccn(Cc2ccc(F)c(F)c2)c1=O)c1nnc(-c2c[nH]c3ncccc23)o1 [Cpd 286]
IC50 [1]: < 500 nM | IC50 [2]: < 500 nM | EC50 [3, 5]: < 1 µM | inhibition at 1 µM [3]: 25 to 75% | inhibition at 10 µM [3]: > 75% | Reduction of Cellular Levels of Akt p308 By Western [4]: bbb (inhibition of more than 75%) | inhibition at 5 µM [4]: > 75%

O=C(NCc1cnc(-c2c[nH]c3ncccc23)s1)c1cccn(Cc2ccc(F)c(F)c2)c1=O [Cpd 134]
IC50 [1]: < 500 nM | IC50 [2]: < 500 nM | inhibition at 1 µM [3]: < 25% | inhibition at 10 µM [3]: > 75% | Reduction of Cellular Levels of Akt p308 By Western [4]: bbb (inhibition of more than 75%) | inhibition at 5 µM [4]: > 75%

O=C(NCc1cccc(-c2ccc3n[nH]c(=O)n3c2)c1)c1cccn(Cc2ccc(F)c(F)c2)c1=O [Cpd 216]
IC50 [1]: 500 to 10000 nM | IC50 [2]: < 500 nM | Reduction of Cellular Levels of Akt p308 By Western [4]: bb (inhibition of from 25% to 75%) | inhibition at 5 µM [4]: 25 to 75%

O=C(NCc1noc(-c2c[nH]c3ncccc23)n1)c1cccn(Cc2ccc(F)cc2)c1=O [Cpd 303]
IC50 [1]: < 500 nM | IC50 [2]: < 500 nM | inhibition at 1 µM [3]: < 25% | inhibition at 10 µM [3]: < 25% | Reduction of Cellular Levels of Akt p308 By Western [4]: bbb (inhibition of more than 75%) | inhibition at 5 µM [4]: > 75%

NC[C@@H](NC(=O)c1cccn(Cc2ccc(F)c(F)c2)c1=O)c1nc(-c2c[nH]c3ncccc23)cs1 [Cpd 296]
IC50 [1]: < 500 nM | IC50 [2]: < 500 nM | EC50 [3, 5]: 1 to 5 µM | inhibition at 1 µM [3]: < 25% | inhibition at 10 µM [3]: > 75% | Reduction of Cellular Levels of Akt p308 By Western [4]: bb (inhibition of from 25% to 75%) | inhibition at 5 µM [4]: 25 to 75%

O=C(NCc1cccc(-c2c[nH]c3ncc(CO)cc23)c1)c1cccn(Cc2ccc(F)c(F)c2)c1=O [Cpd 225]
IC50 [2]: < 500 nM | EC50 [3, 6]: < 1 µM | Reduction of Cellular Levels of Akt p308 By Western [4]: bbb (inhibition of more than 75%) | inhibition at 5 µM [4]: > 75%

O=C(NCc1cccc(-c2ccc3nccn3c2)c1)c1cccn(Cc2ccc(F)c(F)c2)c1=O [Cpd 9]
IC50 [1]: < 500 nM | IC50 [2]: < 500 nM | Reduction of Cellular Levels of Akt p308 By Western [4]: bbb (inhibition of more than 75%)
